Laboratory results reported in patent US10206394B2, “Herbicidal compounds” (Syngenta Participations AG, priority 2014, dated 2019).
Read-outs that look alike come from different tables or passages of the source.

Tests used:
Assay in all cases: Glasshouse assay for herbicidal activity (pre- and post-emergence), percentage phytotoxicity
Assay type in all cases: in vivo
Avena fatua (AVEFA) = details: Avena fatua, Rate 250 g/ha, 100%=total damage, 0%=no damage
Experimental: (§1) Test—Glasshouse Assay for Herbicidal Activity
(§2) Seeds of a variety of monocotyledonous and dicotyledonous test plants are sown in standard soil in pots. The plants are cultivated for one day (for pre-emergence (PRE)) or for about 12 days (for post-emergence (POST)) under controlled conditions in a glasshouse (warm climate species at 24/18° C., cool climate species at 20/16° C., both at day/night; 16 hours light; 65% humidity).
(§3) The test plants are then grown on, in a glasshouse (greenhouse) under controlled conditions (warm climate species at 24/18° C., cool climate species at 20/16° C., both at day/night; 16 hours light; 65% humidity) and are watered twice daily. 15 days after application of the test herbicide (15 DAA) (for post-emergence), and 20 days after application of the test herbicide (20 DAA) (for pre-emergence), the test plants are evaluated visually, and an assessed percentage phytotoxicity score is given for each herbicidal application on each plant species (with 100%=total damage to plant; 0%=no damage to plant).
(§4) The plant species tested are as follows: Alopecurus myosuroides (ALOMY), Avena fatua (AVEFA), Lolium perenne (LOLPE), Echinochloa crus-galli (ECHCG).

[1] = test system: Echinochloa crus-galli (ECHCG); details: Echinochloa crus-galli, Rate 250 g/ha, 100%=total damage, 0%=no damage
Experimental: as §1, §2, §3, §4

Lolium perenne (LOLPE) = details: Lolium perenne, Rate 250 g/ha, 100%=total damage, 0%=no damage
Experimental: as §1, §2, §3, §4

[2] = test system: Alopecurus myosuroides (ALOMY); details: Alopecurus myosuroides, Rate 250 g/ha, 100%=total damage, 0%=no damage
Experimental: as §1, §2, §3, §4

[3] = post-emergence, 360 h, post-emergence, assessed visually 15 DAA, read-out: Post-emergence herbicidal activity (percentage phytotoxicity) AVEFA POST
[4] = pre-emergence, 480 h, pre-emergence, assessed visually 20 DAA, read-out: Pre-emergence herbicidal activity (percentage phytotoxicity) AVEFA PRE
[5] = post-emergence, 360 h, post-emergence, assessed visually 15 DAA, read-out: Post-emergence herbicidal activity (percentage phytotoxicity) ECHCG POST
[6] = pre-emergence, 480 h, pre-emergence, assessed visually 20 DAA, read-out: Pre-emergence herbicidal activity (percentage phytotoxicity) ECHCG PRE
[7] = post-emergence, 360 h, post-emergence, assessed visually 15 DAA, read-out: Post-emergence herbicidal activity (percentage phytotoxicity) LOLPE POST
[8] = pre-emergence, 480 h, pre-emergence, assessed visually 20 DAA, read-out: Pre-emergence herbicidal activity (percentage phytotoxicity) LOLPE PRE
[9] = post-emergence, 360 h, post-emergence, assessed visually 15 DAA, read-out: Post-emergence herbicidal activity (percentage phytotoxicity) ALOMY POST
[10] = pre-emergence, 480 h, pre-emergence, assessed visually 20 DAA, read-out: Pre-emergence herbicidal activity (percentage phytotoxicity) ALOMY PRE

| SMILES | pest or weed control at 250 g/ha (Avena fatua (AVEFA); [3]) | pest or weed control at 250 g/ha (Avena fatua (AVEFA); [4]) | pest or weed control at 250 g/ha [1, 5] | pest or weed control at 250 g/ha [1, 6] | pest or weed control at 250 g/ha (Lolium perenne (LOLPE); [7]) | pest or weed control at 250 g/ha (Lolium perenne (LOLPE); [8]) | pest or weed control at 250 g/ha [2, 9] | pest or weed control at 250 g/ha [2, 10] |
| --- | --- | --- | --- | --- | --- | --- | --- | --- |
| CC#Cc1cc(C)c(C2C(=O)CC(CC(=O)N(C)CCC)C2=O)c(CC)c1 (stereo not shown) [Compound A79] | 100% | 100% | 100% | 100% | 100% | 100% | 100% | 100% |
| CC#Cc1cc(C)c(C2C(=O)CC(CC(=O)NC3CCC3)C2=O)c(C)c1 (stereo not shown) [Compound A81] | 100% | 100% | 100% | 100% | 90% | 100% | 90% | 100% |
| Cc1cc(C)c(C2C(=O)CC(CC(=O)NC3(C#N)CC3)C2=O)c(C)c1 (stereo not shown) [Compound A82] | 10% |  | 30% |  | 30% |  | 10% |  |
| Cc1cc(C)c(C2C(=O)CC(CC(=O)NCC#N)C2=O)c(C)c1 (stereo not shown) [Compound A83] | 10% |  | 70% |  | 30% |  | 50% |  |
| Cc1cc(C)c(C2C(=O)CC(CC(=O)NCc3cc(C)nn3C)C2=O)c(C)c1 (stereo not shown) [Compound A84] | 20% | 0% | 70% | 0% | 20% | 10% | 60% | 40% |
| Cc1cc(C)c(C2C(=O)CC(CC(=O)NCCC#N)C2=O)c(C)c1 (stereo not shown) [Compound A86] | 40% | 0% | 80% | 20% | 50% | 10% | 30% | 0% |
| COCCNC(=O)CC1CC(=O)C(c2c(C)cc(-c3ncc(F)cn3)cc2C)C1=O (stereo not shown) [Compound A87] | 100% | 90% | 100% | 90% | 80% | 80% | 100% | 80% |
| Cc1cccc(CNC(=O)CC2CC(=O)C(c3c(C)cc(C)cc3C)C2=O)c1 (stereo not shown) [Compound A88] | 10% | 0% | 80% | 70% | 100% | 100% | 70% | 90% |
| Cc1cc(C)c(C2C(=O)CC(CC(=O)NCc3cccc(C(F)(F)F)c3)C2=O)c(C)c1 (stereo not shown) [Compound A89] | 90% | 60% | 100% | 100% | 100% | 90% | 90% | 90% |
| COc1ccccc1CNC(=O)CC1CC(=O)C(c2c(C)cc(C)cc2C)C1=O (stereo not shown) [Compound A90] | 0% | 0% | 80% | 40% | 70% | 60% | 0% | 0% |
| Cc1cc(C)c(C2C(=O)CC(CC(=O)NCCC3=CCCCC3)C2=O)c(C)c1 (stereo not shown) [Compound A91] | 0% | 30% | 0% | 20% | 70% | 70% | 10% | 30% |
| Cc1cc(C)c(C2C(=O)CC(CC(=O)NCc3ccc(OC(F)(F)F)cc3)C2=O)c(C)c1 (stereo not shown) [Compound A92] | 70% | 60% | 80% | 80% | 40% | 90% | 60% | 70% |
| Cc1cc(C)c(C2C(=O)CC(CC(=O)NC(C)c3ccc(F)cc3)C2=O)c(C)c1 (stereo not shown) [Compound A93] | 40% | 20% | 70% | 60% | 80% | 90% | 100% | 90% |
| C=CCCNC(=O)CC1CC(=O)C(c2c(C)cc(C)cc2C)C1=O (stereo not shown) [Compound A94] |  | 20% | 80% | 60% |  | 90% |  | 90% |
| Cc1cc(C)c(C2C(=O)CC(CC(=O)NCc3cccc(Cl)c3)C2=O)c(C)c1 (stereo not shown) [Compound A96] | 80% | 70% | 80% | 100% | 100% | 100% | 80% | 100% |
| Cc1cc(C)c(C2C(=O)CC(CC(=O)NCc3ccc(C)o3)C2=O)c(C)c1 (stereo not shown) [Compound A97] | 20% | 0% | 0% | 0% | 70% | 90% | 70% | 30% |
| Cc1cc(C)c(C2C(=O)CC(CC(=O)NCc3ccc(C(F)(F)F)nc3)C2=O)c(C)c1 (stereo not shown) [Compound A98] | 90% | 20% | 60% | 80% | 80% | 80% | 90% | 100% |
| Cc1cc(C)c(C2C(=O)CC(CC(=O)NCc3ccoc3)C2=O)c(C)c1 (stereo not shown) [Compound A99] | 30% | 0% | 0% | 0% | 70% | 20% | 60% | 20% |
| Cc1cc(C)c(C2C(=O)CC(CC(=O)NCc3nc4ccccc4s3)C2=O)c(C)c1 (stereo not shown) [Compound A100] | 0% | 0% | 20% | 20% | 70% | 80% | 70% | 90% |
| Cc1ccc(/C=C/C2(NC(=O)CC3CC(=O)C(c4c(C)cc(C)cc4C)C3=O)CC2)cc1 (stereo not shown) [Compound A101] | 0% |  | 20% |  | 40% |  | 10% |  |
| Cc1cc(C)c(C2C(=O)CC(CC(=O)NC3CCC(C)CC3C)C2=O)c(C)c1 (stereo not shown) [Compound A103] | 10% |  | 20% |  | 20% |  | 60% |  |
| COCC#CC(C)(C)NC(=O)CC1CC(=O)C(c2c(C)cc(C)cc2C)C1=O (stereo not shown) [Compound A104] | 70% | 0% | 70% | 80% | 60% | 80% | 90% | 90% |
